Measurements reported in patent US5767119A, “Method of treating neurodegenerative diseases using an AMPA excitatory amino and an uricosuric agent” (Warner-Lambert Company, priority 1996, dated 1998).
Where two headings read alike, the source gives them in different places.

Assays:
[1] = maximal electroshock, prevention of tonic extensor seizures (anticonvulsant action); type: in vivo, mice (adult male CF1 strain); details: for ED50: probit analysis
Protocol: Adult male CF1 strain mice (18 to 24 g body weight) are obtained from Charles River Laboratories. Mice are allowed free access to food and water prior to testing. Maximal electroshock is performed according to conventional methods (Krall, R. L., et al, Antiepileptic drug development: II. Anticonvulsant drug screening, Epilepsia 19:409-428 (1978). Electrical current (50 mA sinusoid at 60 Hz) is applied by metal corneal electrodes for 0.2 sec. This intensity of electrical current is five times the amount needed to produce tonic extensor seizures in untreated mice. Pretreatment of mice with known anticonvulsant drugs prevents tonic extensor seizures in a dose-related manner (Krall, R. L., et al, Antiepileptic drug development: II. Anticonvulsant drug screening, Epilepsia 19:409-428 (1978). A drug is prepared for intravenous administration by dissolution in aqueous medium with 0.9% sodium chloride. Probenecid is finely divided with mortar and pestle and suspended in 0.2% carboxymethylcellulose in water and given by intraperitoneal injection 30 minutes before administration of anticonvulsant drugs.
That is, groups of ten mice each are pretreated with probenecid (200 mg/kg IP) or saline vehicle. Thirty minutes later each group is given a known anticonvulsant dose of one of several anticonvulsant drugs. The time course of anticonvulsant activity is determined by maximal electroshock testing in groups of mice at various times after administration of the anticonvulsant.
Using procedures identical to those of Example 2, but with administration of several different doses of NBQX, ED50 values were determined by probit analysis (J. T. Litchfield and F. Wilcoxon in Journal of Pharmacology 96:99-113, 1949), with times of testing chosen at approximately the time of maximal anticonvulsant effect (30 seconds for NBQX alone and 10 minutes for NBQX with probenecid coadministration, from Example 1).

[2] = CNS behavioral effects; type: in vivo, mice; details: NBQX 25 mg/kg in combination with probenecid
[3] = cited from earlier work; for Protection: MDL 100,748 65 mg/kg IV
[4] = NMDA-induced brain injury (neuroprotection), injection into the striatum; type: in vivo, rat (seven-day-old albino pups)
Protocol: The neuroprotective action of 5,7-dichlorokynurenate is assessed using an animal model with young rats. Seven-day-old albino rat pups of either sex are anesthetized and given N-methyl-D-aspartate (NMDA) by injection with a fine hypodermic needle into the right posterior corpus striatum. Four days later, the degree of brain damage from NMDA injection is assessed by comparing wet weights of the injected cerebral hemispheres. Methods are similar to those of J. W. McDonald et al. in Experimental Neurology 106:289-296 (1989) except that 15 nmol of NMDA is used rather than 25 nmol as in the McDonald method. The neuroprotective action of 5,7-dichlorokynurenic acid is assessed by injecting it directly into the striatum of the brain in combination with NMDA.

[5] = mouse, in vivo
[6] = mouse, in vivo, iv

## NS(=O)(=O)c1cccc2c1c([N+](=O)[O-])cc1nc(O)c(O)nc12 [NBQX, 2,3-dihydroxy-6-nitro-7-sulfamoyl-benzo(F)-quinoxaline]
[1]; Mus musculus, 0.5 min, NBQX alone, IV, tested at 30 seconds, read-out: ED50
  ED50: 13.1 mg/kg
[1]; NBQX 25 mg/kg IV after saline vehicle
  time until which significant anticonvulsant actions are present: 3 min
[1]; NBQX 25 mg/kg IV after saline vehicle, 15 minutes after dosing
  anticonvulsant action: only insignificant anticonvulsant action is seen
[1]; NBQX 25 mg/kg IV with probenecid 200 mg/kg IP, 15 minutes after dosing
  anticonvulsant effects: significant anticonvulsant effects are seen
[1]; NBQX 25 mg/kg IV with probenecid 200 mg/kg IP, 30 minutes after dosing
  anticonvulsant effects: significant anticonvulsant effects are seen
[1]; NBQX 25 mg/kg IV with probenecid 200 mg/kg IP, 1 hour after dosing
  anticonvulsant effects: significant anticonvulsant effects are seen
[1]; NBQX 25 mg/kg IV with probenecid 200 mg/kg IP, 2 hours after dosing
  anticonvulsant effects: significant anticonvulsant effects are seen
[1]; NBQX 25 mg/kg IV with probenecid 200 mg/kg IP, 4 hours after dosing
  anticonvulsant effects (significant effects seen or not): not 4 hours (14400 seconds) after dosing
[1]; NBQX IV coadministered with probenecid 200 mg/kg IP, tested at 10 minutes
  ED50: 2.57 mg/kg
[1]; NBQX with vs without probenecid, ED50 values differ significantly (p <0.05)
  increase in potency following probenecid coadministration: approximately fivefold
[2]
  CNS behavioral effects: ptosis, profoundly decreased locomotor activity, greatly delayed righting reflex, and somnolence

## O=C(O)CN=c1cc(C(=O)O)[nH]c2cc(Cl)cc(Cl)c12 [MDL 100,748, 4-[(carboxymethyl)imino]-5,7-dichloro-1,4-dihydro-2-quinolinecarboxylic acid]
[3]; 5 min prior to QA, without probenecid
  Protection: 9/10
[3]; 5 min prior to QA, pretreated with probenecid 200 mg/kg IP 30 min before
  Protection: 9/10
[3]; 30 min prior to QA, without probenecid
  Protection: 0/10
[3]; 30 min prior to QA, pretreated with probenecid 200 mg/kg IP 30 min before
  Protection: 7/10
[3]; pretreated with probenecid, preliminary
  duration of protection against seizures induced by quinolinic acid: longer duration of protection against seizures

## O=C(O)C1CN(CCCP(=O)(O)O)CCN1 (stereo not shown) [CPP, 4-(3-phosphonopropyl)-2-piperazinecarboxylic acid]
[1]; CPP 3 mg/kg IV, with probenecid 200 mg/kg IP
  duration of significant anticonvulsant action: 240 min
[1]; CPP 3 mg/kg IV, with vs without probenecid coadministration
  percentage of mice protected from maximal electroshock seizures: increased by probenecid coadministration at each time point tested
[1]; CPP 3 mg/kg IV, without probenecid
  duration of significant anticonvulsant action: 120 min

## O=C(O)c1cc(O)c2c(Cl)cc(Cl)cc2n1 [5,7-dichlorokynurenic acid]
[4]; three different doses co-injected with 15 nmol NMDA, pretreatment with 200 mg/kg probenecid
  neuroprotective action: significantly enhanced
[5]
  ratio of area under the brain radioactivity curve (5-120 minutes) for the 1.3 mg/kg to 0.3 mg/kg dose: 12
  transport from brain to blood: actively transported from brain to blood by a saturable process
[6]
  penetration and/or retention of radiolabeled material in brain tissue: very little penetration and/or retention of radiolabeled material is observed in brain tissue

## CCCN(CCC)S(=O)(=O)c1ccc(C(=O)O)cc1 [Probenecid]
[1]; probenecid 200 mg/kg IP followed by IV sodium chloride vehicle
  anticonvulsant actions: no anticonvulsant actions in any of 10 mice
[4]; probenecid alone, in comparison to untreated animals
  extent of brain damage: did not alter the extent of brain damage
